Common to all, as to assay type: cell-based
Experiment [1] concerns MM cell lines OPM.2-P10, H929-1051, KMS12BM PR, L363, JJN3. Nature of the experiment: 7 day combination assay (Annexin V/7-AAD flow cytometry, fractional product method), MM cell line panel. The conditions noted are these: panel of 5 MM cell lines, 7 day assay, 3 days priming with second agent. As to the method: Five MM cell lines with acquired or inherent resistance to lenalidomide or pomalidomide were included in the studies (OPM.2-P10, H929-1051, KM[…] PR, L363, and JJN3). […] The assay was performed in a 96-well plate. All MM cell lines were cultured in an incubator at 37° C. with 5% CO2 using the indicated cell culture media containing 1×Penicillin-Streptomycin. The MM cells were primed for 3 days with these second agents at the single agent IC50 value. […] Compound 2 was added to the cells at a dose range of 30 μM-0.00018 μM, depending on the cell line, for a 8 point dose response curve. The cells were incubated at 37° C. for an additional 4 days. At the end of the 7 day treatment, the MM cells were stained with Annexin V and 7-AAD and analyzed on a flow cytometer. Live MM cells were identified as Annexin V and 7-AAD double negative cells. In these experiments, synergy calculations were performed using the fractional product method (Webb, 1963).

For experiment [2], the system named is panel of MM cell lines (H929-1051, KMS11, KMS-12PE, L363, OPM-P10, RPMI8226). Nature of the experiment: Compound 2 combination with small molecule inhibitors, 3 day Cell Titer-Glo, Highest Single Agent synergy. The conditions noted are these: six MM cell lines, 3 days, Highest Single Agent method. The protocol: The combination experiments were run twice, each time with replicate data on separate plates. Compounds were pre-spotted into the appropriate wells of 384-well plates using an acoustic dispenser. All MM cell lines were cultured in an incubator at 37° C. with 5% CO2 using the indicated cell culture media containing 1× Penicillin-Streptomycin. Cells were added to the compound containing 384-well plates using a Multidrop Combi Reagent Dispenser and allowed to incubate for 3 days at 37° C. with 5% CO2. After 3 days, cells were assessed for their level of ATP content via Cell Titer-Glo measured on a luminescence detector (PerkinElmer Envision).
The Highest Single Agent (HAS) method was used to detect synergy in the dose response curve data. Combinations were analyzed from a response surface perspective.

Experiment [3] concerns AMO1 (parental) cell line. As to the kind of experiment: Cell proliferation, combination with Compound 2, combination index (Calcusyn), AMO1. Conditions: AMO1, 3 days. As to the method:
(§1) AMO1 (parental) and AMO1-PR (pomalidomide resistant) cell lines were treated with various doses of Compound 2 in combination with increasing doses of an MEK inhibitor trametinib for 3 days. Cell proliferation was analyzed using thymidine incorporation assays. Combination index values were calculated by Calcusyn and values below 10^0 represented the synergy between the combination treatments. The results are shown in FIG. 4A (AMO1), FIG. 4B (AMO1 combination index), FIG. 4C (AMO1-PR), and FIG. 4D (AMO1-PR combination index), respectively.
(§2) AMO1 and AMO1-PR (pomalidomide resistant) cell lines were treated with increasing doses of Compound 2 in combination with a PLK1 inhibitor (BI2536). Changes in cell proliferation were studied in response to monotherapy and combinations at Day 3 post treatment. Combination Index was calculated using Calcusyn based method. Combination index values were calculated by Calcusyn and values below 10^0 represented the synergy between the combination treatments. PLK1 is one of the key target gene of MDMS8 (molecularly defined myeloma segment 8), a high risk cluster identified from myeloma genome project. The results are shown in FIG. 6A (AMO1), FIG. 6B (AMO1 combination index), FIG. 6C (AMO1-PR), and FIG. 6D (AMO1-PR combination index), respectively. Inhibition of MDMS8 target gene PLK1 with Compound 2 is synergistic in AMO1 and AMO1-PR cells.
(§3) AMO1 and AMO1-PR (pomalidomide resistant) cell lines were treated with increasing doses of Compound 2 in combination with an NEK2 inhibitor (JH295). Changes in cell proliferation were studied in response to monotherapy and combinations at Day 3 post treatment. Combination index values were calculated by Calcusyn and values below 10^0 represented the synergy between the combination treatments. NEK2 is one of the key target gene of MDMS8 (molecularly defined myeloma segment 8), a high risk cluster identified from myeloma genome project. The results are shown in FIG. 7A (AMO1 combination index) and FIG. 7B (AMO1-PR combination index), respectively. Inhibition of MDMS8 target gene NEK2 with Compound 2 is synergistic in AMO1 and AMO1-PR cells.
(§4) AMO1, AMO1-PR (pomalidomide resistant), K12PE and K12PE-PR (pomalidomide resistant) cell lines were treated with increasing doses of Compound 2 in combination with an AURKB inhibitor (AZD 1152). […] Combination index values were calculated by Calcusyn and values below […] represented the synergy between the combination treatments. […]
(§5) AMO1, AMO1-PR (pomalidomide resistant) cell lines were treated with increasing doses of Compound 2 in combination with a BIRC5 inhibitor (YM155). […] Combination index values were calculated by Calcusyn and values below 10^0 represented the synergy between the combination treatments. […]

Experiment [4] relates to AMO1-PR (pomalidomide resistant) cell line. As to the kind of experiment: Cell proliferation, combination with Compound 2, combination index (Calcusyn), AMO1-PR. Conditions: 3 days. The protocol:
as §1, §2, §3, §4, §5

Data on 13 compounds can be found in patent publication US12186311B2, “Antiproliferative compounds and second active agents for combined use” (Celgene Corporation, priority 2019, dated 2025).

As to `COc1cc(C)[nH]c(=O)c1CNC(=O)c1c(C)n([C@H](C)C2CCN(CC(F)(F)F)CC2)c2ccccc12` [CPI-1205, (R)—N-((4-methoxy-6-methyl-2-oxo-1,2-dihydropyridin-3-yl)methyl)-2-methyl-1-(1-(1-(2,2,2-trifluoroethyl)piperidin-4-yl)ethyl)-1H-indole-3-carboxamide], in experiment [1], the “synergy in combination with Compound 2” value is reported as “synergistic in all 5 cell lines tested”.
Consider `C[C@]1(O)C[C@@H](c2nc(-c3ccc4ccc(-c5ccccc5)nc4c3)c3c(N)nccn32)C1` [linsitinib, cis-3-[8-amino-1-(2-phenyl-7-quinolinyl)imidazo[1,5-a]pyrazin-3-yl]-1-methylcyclobutanol], for which the “synergy in combination with Compound 2” value in experiment [2] is given as “synergy in combination with Compound 2 in four out of the six cell lines tested”.
With `CC(C)N(C[C@H]1O[C@@H](n2cnc3c(N)ncnc32)[C@H](O)[C@@H]1O)C1CC(CCc2nc3cc(C(C)(C)C)ccc3[nH]2)C1` (stereo partly drawn) [pinometostat, (2R,3R,4S,5R)-2-(6-amino-9H-purin-9-yl)-5-((((1r,3S)-3-(2-(5-(tert-butyl)-1H-benzo[d]imidazol-2-yl)ethyl)cyclobutyl)(isopropyl)amino)methyl)tetrahydrofuran-3,4-diol], in experiment [1], the “synergy in combination with Compound 2” value is listed as “Synergy was also evident”.
With `C=CC(=O)N1CCC[C@@H](n2nc(-c3ccc(Oc4ccccc4)cc3)c3c(N)ncnc32)C1` [ibrutinib, 1-[(3R)-3-[4-amino-3-(4-phenoxyphenyl)-1Hpyrazolo[3,4-d]pyrimidin-1-yl]-1-piperidinyl]-2-propen-1-one], the “synergy in combination with Compound 2” value in experiment [2] is recorded as “synergy in one, two, or three out of the six cell lines tested”.
On to `CC[C@@H]1C(=O)N(C)c2cnc(Nc3ccc(C(=O)NC4CCN(C)CC4)cc3OC)nc2N1C1CCCC1` [BI2536, (R)-4-((8-cyclopentyl-7-ethyl-5-methyl-6-oxo-5,6,7,8-tetrahydropteridin-2-yl)amino)-3-methoxy-N-(1-methylpiperidin-4-yl)benzamide], for which the “synergy with Compound 2 (combination index)” value (shortened to “synergy … (combination index)”) in experiment [3] and in experiment [4] was “synergistic” each time.
For the compound `Cc1cnc(Nc2ccc(OCCN3CCCC3)cc2)nc1Nc1cccc(S(=O)(=O)NC(C)(C)C)c1` [fedratinib, N-tert-butyl-3-[(5-methyl-2-{4-[2-(pyrrolidin-1-yl)ethoxy]anilino}pyrimidin-4-yl)amino]benzenesulfonamide], in experiment [2], the “synergy in combination with Compound 2” value is given as “synergy in one, two, or three out of the six cell lines tested”.
As for `COCCn1c2c([n+](Cc3cnccn3)c1C)C(=O)c1ccccc1C2=O.[Br-]` [YM155, 1-(2-methoxyethyl)-2-methyl-4,9-dioxo-3-(pyrazin-2-ylmethyl)-4,9-dihydro-1H-naphtho[2,3-d]imidazol-3-ium bromide], the “synergy … (combination index)” value in experiment [3] and in experiment [4] was “synergistic” each time.
Turning to `CO[C@H]1C[C@@H]2CC[C@@H](C)[C@@](O)(O2)C(=O)C(=O)N2CCCC[C@H]2C(=O)O[C@H]([C@H](C)C[C@@H]2CC[C@@H](OCCO)[C@H](OC)C2)CC(=O)[C@H](C)/C=C(\C)[C@@H](O)[C@@H](OC)C(=O)[C@H](C)C[C@H](C)/C=C/C=C/C=C/1C` [everolimus, 40-O-(2-hydroxyethyl)-rapamycin], the “synergy in combination with Compound 2” value in experiment [2] is “synergy in combination with Compound 2 in five out of the six cell lines tested”.
Same read-out and setting: the entry for `O=C(/C=C\n1cnc(-c2cc(C(F)(F)F)cc(C(F)(F)F)c2)n1)NNc1cnccn1` [selinexor, (2Z)-3-{3-[3,5-bis(trifluoromethyl)phenyl]-1H-1,2,4-triazol-1-yl}-N′-(pyrazin-2-yl)prop-2-enehydrazide] is “synergy in one, two, or three out of the six cell lines tested”.
Regarding `CCN(c1cc(-c2ccc(CN3CCOCC3)cc2)cc(C(=O)NCc2c(C)cc(C)[nH]c2=O)c1C)C1CCOCC1` [tazemetostat, N-[(1,2-dihydro-4,6-dimethyl-2-oxo-3-pyridinyl)methyl]-5-[ethyl(tetrahydro-2H-pyran-4-yl)amino]-4-methyl-4′-(4-morpholinylmethyl)-[1,1′-biphenyl]-3-carboxamide], the “synergy in combination with Compound 2” value in experiment [2] is reported as “synergy in one, two, or three out of the six cell lines tested”; in experiment [1], “synergistic in all 5 cell lines tested”.
`CC(C)N(CCCNC(=O)Nc1ccc(C(C)(C)C)cc1)C[C@H]1O[C@@H](n2cc(Br)c3c(N)ncnc32)[C@H](O)[C@@H]1O` [SGC0946, 5 bromo-7-[5-deoxy-5-[[3-[[[[4-(1,1-dimethylethyl)phenyl]amino]carbonyl]amino]propyl](1-methylethyl)amino]-β-D-ribofuranosyl]-7H-pyrrolo[2,3-d]pyrimidin-4-amine]: the “synergy in combination with Compound 2” value in experiment [2] is reported as “synergy in one, two, or three out of the six cell lines tested”.
With `Nc1ncn([C@@H]2O[C@H](CO)[C@@H](O)[C@H]2O)c(=O)n1` [azacitidine, 4-amino-1-β-D-ribofuranosyl-1,3,5-triazin-2(1H)-one], in experiment [1], the “synergy in combination with Compound 2” value is listed as “synergy in 4 of the cell lines tested”.
For `C#CC(=O)Nc1ccc2c(c1)/C(=C/c1[nH]c(CC)nc1C)C(=O)N2` [JH295, (Z)—N-(3-((2-ethyl-4-methyl-1H-imidazol-5-yl)methylene)-2-oxoindolin-5-yl)propiolamide], the “synergy … (combination index)” value in experiment [3] and in experiment [4] was “synergistic” throughout.
